Assay results: the supplement of paper PMC11424490

Experiments:
Test in all cases: combination cScore with sotorasib (Bliss gap around IC50) (%PoC); higher = stronger additive effect
[1] = tested on: SW837
Summary of the method: (§1)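 After 24 h in 384-well plates (500 or 800 cells per well), NCI-H2122, NCI-H358 and SW837 cells received concentration matrices and grew for 72 h, except SW837, which grew for 144 h. CellTiter-Glo readings were scaled to vehicle wells and fitted with four-parameter curves. Each score is the averaged Bliss-independence difference (expected minus measured viability) over a region around both monotherapy IC50s, or at top concentrations when no IC50 was reached.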

[2] = tested on: NCI-H358
Summary of the method: as §1

[3] = tested on: NCI-H2122
Summary of the method: as §1

Row | Structure (SMILES) | combination cScore with sotorasib [1] | combination cScore with sotorasib [2] | combination cScore with sotorasib [3]
1 | CC(C)N(CCCNC(=O)Nc1ccc(C(C)(C)C)cc1)C[C@H]1O[C@@H](n2ccc3c(N)ncnc32)[C@H](O)[C@@H]1O + C=CC(=O)N1CCN(c2nc(=O)n(-c3c(C)ccnc3C(C)C)c3nc(-c4c(O)cccc4F)c(F)cc23)[C@@H](C)C1 [sotorasib] | 1.84 | 2.07 | 8.67
2 | CNS(=O)(=O)Nc1nccc(Cc2c(C)c3ccc(Oc4ncccn4)cc3oc2=O)c1F + C=CC(=O)N1CCN(c2nc(=O)n(-c3c(C)ccnc3C(C)C)c3nc(-c4c(O)cccc4F)c(F)cc23)[C@@H](C)C1 [sotorasib] | 5.63 | 4.31 | 8.14
3 | COc1ncc(-c2ccc3nccc(-c4ccnnc4)c3c2)cc1NS(=O)(=O)c1ccc(F)cc1F + C=CC(=O)N1CCN(c2nc(=O)n(-c3c(C)ccnc3C(C)C)c3nc(-c4c(O)cccc4F)c(F)cc23)[C@@H](C)C1 [sotorasib] | 8.72 | 5.96 | 20.8
4 | C[C@@H]1CN(CC(=O)Nc2ccc3c(c2)Cc2cccc(-c4cc(=O)cc(N5CCOCC5)o4)c2S3)C[C@H](C)O1 + C=CC(=O)N1CCN(c2nc(=O)n(-c3c(C)ccnc3C(C)C)c3nc(-c4c(O)cccc4F)c(F)cc23)[C@@H](C)C1 [sotorasib] | 9.38 | 5.09 | 17.1
5 | Cc1c(-c2c(-c3ccc(F)o3)sc3ncnc(O[C@H](Cc4ccccc4OCc4ccnn4CC(F)(F)F)C(=O)O)c23)ccc(OCCN2CCN(C)CC2)c1Cl + C=CC(=O)N1CCN(c2nc(=O)n(-c3c(C)ccnc3C(C)C)c3nc(-c4c(O)cccc4F)c(F)cc23)[C@@H](C)C1 [sotorasib] | 2.8 | 4.06 | 10.4
6 | Cc1c(Cn2c(C)nc3c(C(=O)O)cc(N4CCOCC4)cc32)cccc1C(F)(F)F + C=CC(=O)N1CCN(c2nc(=O)n(-c3c(C)ccnc3C(C)C)c3nc(-c4c(O)cccc4F)c(F)cc23)[C@@H](C)C1 [sotorasib] | 9.96 | -2.39 | 5.26
7 | Cc1cc(C)c(CNC(=O)c2cc(-c3ccc(N4CCNCC4)nc3)cc3c2c(C)cn3C2CCCC2)c(=O)[nH]1 + C=CC(=O)N1CCN(c2nc(=O)n(-c3c(C)ccnc3C(C)C)c3nc(-c4c(O)cccc4F)c(F)cc23)[C@@H](C)C1 [sotorasib] | 1.67 | 2.26 | 10.7
8 | Cc1nc(Nc2n[nH]c3c2CN(C(=O)N[C@H](CN(C)C)c2ccccc2)C3(C)C)c2sccc2n1 + C=CC(=O)N1CCN(c2nc(=O)n(-c3c(C)ccnc3C(C)C)c3nc(-c4c(O)cccc4F)c(F)cc23)[C@@H](C)C1 [sotorasib] | 4.19 | -0.36 | 17.5
9 | O=C(C1CC1)N1CC[C@@H](Cn2c(-c3ccc(-c4ccc5occc5c4)cc3)nc3cnccc32)C1 + C=CC(=O)N1CCN(c2nc(=O)n(-c3c(C)ccnc3C(C)C)c3nc(-c4c(O)cccc4F)c(F)cc23)[C@@H](C)C1 [sotorasib] | 13.8 | 1 | 14.4
10 | O=c1cc(-c2cccc3c2Sc2ccccc2S3)oc(N2CCOCC2)c1 + C=CC(=O)N1CCN(c2nc(=O)n(-c3c(C)ccnc3C(C)C)c3nc(-c4c(O)cccc4F)c(F)cc23)[C@@H](C)C1 [sotorasib] | 10.6 | 12.9 | 11.2
11 | CC1(C)CCC(c2ccc(Cl)cc2)=C(CN2CCN(c3ccc(C(=O)NS(=O)(=O)c4ccc(N[C@H](CCN5CCOCC5)CSc5ccccc5)c(S(=O)(=O)C(F)(F)F)c4)cc3)CC2)C1 [ABT-263] + C=CC(=O)N1CCN(c2nc(=O)n(-c3c(C)ccnc3C(C)C)c3nc(-c4c(O)cccc4F)c(F)cc23)[C@@H](C)C1 [sotorasib] | 20.7 | 2.08 | 15.1
12 | COc1cc(CCc2cc(NC(=O)c3ccc(N4CC(C)NC(C)C4)cc3)n[nH]2)cc(OC)c1 (stereo not given) [AZD4547] + C=CC(=O)N1CCN(c2nc(=O)n(-c3c(C)ccnc3C(C)C)c3nc(-c4c(O)cccc4F)c(F)cc23)[C@@H](C)C1 [sotorasib] | 8.33 | 5.01 | 11.8
13 | CCN(CCCOc1ccc2c(Nc3cc(CC(=O)Nc4cccc(F)c4)[nH]n3)ncnc2c1)CCOP(=O)(O)O [AZD-1152] + C=CC(=O)N1CCN(c2nc(=O)n(-c3c(C)ccnc3C(C)C)c3nc(-c4c(O)cccc4F)c(F)cc23)[C@@H](C)C1 [sotorasib] | 9.37 | 1.15 | 11.3
14 | CCN1CCN(Cc2ccc(Nc3ncc(F)c(-c4cc(F)c5nc(C)n(C(C)C)c5c4)n3)nc2)CC1 [Abemaciclib] + C=CC(=O)N1CCN(c2nc(=O)n(-c3c(C)ccnc3C(C)C)c3nc(-c4c(O)cccc4F)c(F)cc23)[C@@H](C)C1 [sotorasib] | 19.6 | 6.78 | 9.29
15 | CN(C)C/C=C/C(=O)Nc1cc2c(Nc3ccc(F)c(Cl)c3)ncnc2cc1O[C@H]1CCOC1 [Afatinib] + C=CC(=O)N1CCN(c2nc(=O)n(-c3c(C)ccnc3C(C)C)c3nc(-c4c(O)cccc4F)c(F)cc23)[C@@H](C)C1 [sotorasib] | 20.1 | 11.4 | 22.8
16 | COc1cc2nc(C)nc(N[C@H](C)c3cc(N)cc(C(F)(F)F)c3)c2cc1O[C@H]1CCOC1 [BI-3406 (SOSi)] + C=CC(=O)N1CCN(c2nc(=O)n(-c3c(C)ccnc3C(C)C)c3nc(-c4c(O)cccc4F)c(F)cc23)[C@@H](C)C1 [sotorasib] | 9.14 | 13 | 28.9
17 | Nc1cc(C(F)(F)F)c(-c2cc(N3CCOCC3)nc(N3CCOCC3)n2)cn1 [BKM120] + C=CC(=O)N1CCN(c2nc(=O)n(-c3c(C)ccnc3C(C)C)c3nc(-c4c(O)cccc4F)c(F)cc23)[C@@H](C)C1 [sotorasib] | 15.9 | 4.4 | 16.9
18 | Cc1nc(NC(=O)N2CCC[C@H]2C(N)=O)sc1-c1ccnc(C(C)(C)C(F)(F)F)c1 [BYL-719] + C=CC(=O)N1CCN(c2nc(=O)n(-c3c(C)ccnc3C(C)C)c3nc(-c4c(O)cccc4F)c(F)cc23)[C@@H](C)C1 [sotorasib] | 24.4 | 5.72 | 24.8
19 | COC(=O)[C@]12CCC(C)(C)C[C@H]1[C@H]1C(=O)C=C3[C@@]4(C)C=C(C#N)C(=O)C(C)(C)[C@@H]4CC[C@@]3(C)[C@]1(C)CC2 [Bardoxolone methyl] + C=CC(=O)N1CCN(c2nc(=O)n(-c3c(C)ccnc3C(C)C)c3nc(-c4c(O)cccc4F)c(F)cc23)[C@@H](C)C1 [sotorasib] | 3 | -1.43 | 13
20 | O=C(/C=C/c1cccc(S(=O)(=O)Nc2ccccc2)c1)NO [Belinostat] + C=CC(=O)N1CCN(c2nc(=O)n(-c3c(C)ccnc3C(C)C)c3nc(-c4c(O)cccc4F)c(F)cc23)[C@@H](C)C1 [sotorasib] | 9.09 | -2.69 | 10.8
21 | Cc1c(N)nc([C@H](CC(N)=O)NC[C@H](N)C(N)=O)nc1C(=O)N[C@H](C(=O)N[C@H](C)[C@@H](O)[C@H](C)C(=O)N[C@H](C(=O)NCCc1nc(-c2nc(C(=O)NCCC[S+](C)C)cs2)cs1)[C@@H](C)O)[C@@H](OC1OC(CO)C(O)C(O)C1OC1OC(CO)C(O)C(OC(N)=O)C1O)c1cnc[nH]1 (stereo not given in full) [Bleomycin] + C=CC(=O)N1CCN(c2nc(=O)n(-c3c(C)ccnc3C(C)C)c3nc(-c4c(O)cccc4F)c(F)cc23)[C@@H](C)C1 [sotorasib] | 11.1 | -4.36 | 19.9
22 | CC(C)C[C@H](NC(=O)[C@H](Cc1ccccc1)NC(=O)c1cnccn1)B(O)O [Bortezomib] + C=CC(=O)N1CCN(c2nc(=O)n(-c3c(C)ccnc3C(C)C)c3nc(-c4c(O)cccc4F)c(F)cc23)[C@@H](C)C1 [sotorasib] | -5.84 | 0.21 | 5.05
23 | COc1cc(Nc2c(C#N)cnc3cc(OCCCN4CCN(C)CC4)c(OC)cc23)c(Cl)cc1Cl [Bosutinib] + C=CC(=O)N1CCN(c2nc(=O)n(-c3c(C)ccnc3C(C)C)c3nc(-c4c(O)cccc4F)c(F)cc23)[C@@H](C)C1 [sotorasib] | 11.2 | 5.71 | 8.9
24 | CC[C@H](Nc1ncnc2[nH]cnc12)c1nc2cccc(F)c2c(=O)n1-c1ccccc1 [Cal-101] + C=CC(=O)N1CCN(c2nc(=O)n(-c3c(C)ccnc3C(C)C)c3nc(-c4c(O)cccc4F)c(F)cc23)[C@@H](C)C1 [sotorasib] | 7.76 | 3.19 | 29.1
25 | O=P1(N(CCCl)CCCl)NCCCO1 (stereo not given) [Cyclophosphamide] + C=CC(=O)N1CCN(c2nc(=O)n(-c3c(C)ccnc3C(C)C)c3nc(-c4c(O)cccc4F)c(F)cc23)[C@@H](C)C1 [sotorasib] | -10.5 | 4.33 | -0.02
